Drawing on patent US9284283B2, “Macrocyclic compounds for modulating IL-17” (ENSEMBLE THERAPEUTICS CORPORATION, priority 2012, dated 2016), this text covers IC50 and Kd for seven compounds.

The test system of test [1] is IL-17-induced GROα secretion from HT-29 cells. The experiment in a line: HT-29 cellular assay (IL-17-induced GROα secretion). In kind it is cell-based. The following applies: Homo sapiens. The method, then:
To test the ability of a compound of the invention to neutralize or antagonize IL-17 bioactivity, the following cell-based assay was used. IL-17 can stimulate epithelial cells and other cells to secrete GROα. The ability of a compound of the invention to neutralize IL-17-induced GROα secretion from the human colorectal adenocarcinoma epithelial cell line HT-29 is tested in this assay.
HT-29 cells (human colorectal adenocarcinoma epithelial cells, ATCC #HTB-38), were maintained in culture/assay medium in tissue culture-treated flasks using standard techniques. HT-29 cells were grown in tissue culture flasks until they were 50-80% confluent on the day before the assay. The day before the assay, the cells were detached from the culture flasks with trypsin+EDTA. The trypsin was inactivated with complete assay medium. HT-29 cells were then centrifuged at 500×g for 5 minutes at room temperature. The cell pellet was then re-suspended in Defined Keratinocyte SFM (Invitrogen #10766019)+10% FCS and 50,000 HT-29 cells (in 100 μl) were added to each treatment well of the 96-well plates. The 96-well plates were placed in a tissue culture incubator (37° C., 5% CO2) overnight. The next day, the media was removed from the cells and the cells were washed twice with Defined Keratinocyte SFM. In a separate 96-well plate, compounds to be tested were serially diluted in Defined Keratinocyte SFM and run in triplicate in 100 μL total volume. To these compound samples were then added 100 μL of human IL-17 at a concentration of 20 ng/mL in Defined Keratinocyte SFM for serum-free assays. 150 μL of the compound/IL-17 mixture was then added to the cells from which the media has previously been removed. The cells were grown for 48 hours in Defined Keratinocyte SFM in a tissue culture incubator (37° C., 5% CO2).
At the end of the incubation, the plates are centrifuged (500×g for 5 minutes at room temperature), and the cell culture media is transferred to polypropylene 96-well plates. The supernatant was used neat in the ELISA. GROα levels are measured with a GROα sandwich ELISA (R+D Systems DuoSet #DY275E), as per the manufacturer's instructions. The ELISA plates were previously coated with mAb 275 (R+D Systems) at 4 μg/mL. GROα is detected using biotinylated goat anti-human GROα (R+D Systems BAF275) at 200 ng/mL using TMB as a substrate. At the end of the ELISA reactions, plates are read at 450 nm on a microplate reader and compared to a standard calibration curve.

Another test deals with T1, IL17A (Homo sapiens, UniProt Q16552).
T1 sequence (Q16552 24-155): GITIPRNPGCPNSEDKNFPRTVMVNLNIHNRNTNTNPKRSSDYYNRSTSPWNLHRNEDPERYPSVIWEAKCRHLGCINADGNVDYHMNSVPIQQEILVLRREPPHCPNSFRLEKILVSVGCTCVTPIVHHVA
The experiment in a line: Surface Plasmon Resonance (SPR) analysis of compound interactions with IL17A. The following applies: SPR binding to IL17A. The method in brief: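 His-tagged IL17A captured on a Ni-NTA chip; five 2- or 3-fold compound dilutions from 50 μM injected for 180 s, 120 s dissociation, in HEPES-saline buffer with 0.5% DMSO. Baseline-subtracted sensorgrams fitted 1:1 for ka, kd and KD; Kd also derived from binding extent per concentration.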
Background: SPR reads the build-up and loss of mass on a sensor chip optically.

The target of test [2] is T2, recombinant human IL17a (binding to its receptor IL17R) (Homo sapiens, UniProt Q16552).
T2 construct: purchased R&D Systems 317-ILB (IL17a); 177-IR (IL17R/Fc)
T2 sequence (Q16552 20-155 limits assumed): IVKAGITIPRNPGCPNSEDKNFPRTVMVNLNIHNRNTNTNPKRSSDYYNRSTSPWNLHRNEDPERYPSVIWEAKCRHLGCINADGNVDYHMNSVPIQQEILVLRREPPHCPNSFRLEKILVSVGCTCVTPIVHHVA
The experiment in a line: IL-17 competition ELISA I (IL17a coated, IL17R/Fc binding). The method in brief: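 Plates coated with 20 nM recombinant human IL17a received compound dilutions and 12 nM IL17R/Fc (final) for 30 min at room temperature. Bound receptor was detected with HRP anti-human Fc and TMB, read at 450 nm. IC50 came from a 4-parameter logistic fit between no-competitor and blank controls.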
(ELISA stands for enzyme-linked immunosorbent assay.)

What is called IC50 is the midpoint of a concentration-inhibition curve. By Kd is commonly meant the constant that tells how readily two partners part at equilibrium. The low end stands for a tighter complex, the high end for a looser complex. As to `COC(=O)[C@@H]1CCCCNC(=O)CCCNC(=O)[C@@H](Cc2ccc(NC(=O)[C@H](Cc3ccccc3Cl)NC(=O)c3ccccc3)cc2)NC(=O)CC2(CCCC2)CC(=O)N1` [Compound 113], the 50% inhibitory concentration (IC50) in test [1] was more than 10 µM. This compound also had a Kd on IL17A of 0.1 to 1 µM.

With `COC(=O)[C@@H]1CCCCNC(=O)CCCCNC(=O)[C@@H](Cc2ccc(NC(=O)[C@H](Cc3ccccc3F)NC(=O)Cc3ccccc3)cc2)NC(=O)CC2(CCCC2)CC(=O)N1` [Compound 110], the IC50 in test [1] was more than 10 µM. Moreover, the dissociation constant (Kd) on IL17A fell in the range of 0.1 to 1 µM.

As to `COC(=O)[C@H]1CCCCNC(=O)CNC(=O)[C@@H](Cc2ccc(NC(=O)[C@H](Cc3ccccc3Cl)NC(=O)Cc3ccccc3)cc2)NC(=O)CC2(CCCC2)CC(=O)N1` [Compound 141], the IC50 in test [1] is 1 to 10 µM. For the same compound, the Kd on IL17A is less than 0.1 µM.

Turning to `O=C1CNC(=O)[C@@H](Cc2ccc(NC(=O)[C@H](Cc3ccccc3Cl)NC(=O)Cc3ccccc3)cc2)NC(=O)CC2(CCCC2)CC(=O)N[C@@H](C(=O)O)CCCCN1` [Compound 180], the IC50 is less than 0.1 µM in test [2] and less than 1 µM in test [1]. On IL17A, this compound showed a Kd of less than 0.1 µM.

In test [1], `COC(=O)[C@H]1CCCCNC(=O)CCCNC(=O)[C@@H](Cc2ccc(NC(=O)[C@H](Cc3ccccc3F)NC(=O)Cc3ccccc3)cc2)NC(=O)CC2(CCCC2)CC(=O)N1` [Compound 107] registered an IC50 of more than 10 µM. In addition, the Kd at IL17A is 0.1 to 1 µM.

Turning to `O=C1CNC(=O)[C@@H](Cc2ccc(NC(=O)[C@H](Cc3ccccc3Br)NC(=O)Cc3ccccc3)cc2)NC(=O)CC2(CCCC2)CC(=O)NCCCCCN1` [Compound 187], the IC50 was less than 0.1 µM in test [2] and 1 to 10 µM in test [1]. This compound displayed a Kd at IL17A of less than 0.1 µM.

As for `COC(=O)[C@H]1CCCCNC(=O)CNC(=O)[C@@H](Cc2ccc(NC(=O)[C@H](Cc3ccccc3Cl)NC(=O)c3ccccc3)cc2)NC(=O)CC2(CCCC2)CC(=O)N1` [Compound 142], in test [1], the IC50 was in the range of 1 to 10 µM. Also, on IL17A, the Kd was less than 0.1 µM.
